Measurements from ChEMBL document CHEMBL3865816, “Design, synthesis and biological evaluation of novel azaspiro analogs of linezolid as antibacterial and antitubercular agents” (Eur J Med Chem, 2016).
≈ marks a conversion by molar mass, not a printed value.

Experiments:
Assay type in all cases: functional
Staphylococcus aureus [1] = assay: Antibacterial activity against Staphylococcus aureus NCIM 2079 at 3 ug/ml measured after 12 hrs by spectrophotometric method; conditions: NCIM 2079, 12 h
Pseudomonas aeruginosa [2] = assay: Antibacterial activity against Pseudomonas aeruginosa NCIM 2036 at 3 ug/ml measured after 8 hrs by spectrophotometric method; conditions: NCIM 2036, 8 h
Pseudomonas aeruginosa [3] = assay: Antibacterial activity against Pseudomonas aeruginosa NCIM 2036 at 30 ug/ml measured after 8 hrs by spectrophotometric method; conditions: NCIM 2036, 8 h
Pseudomonas aeruginosa [4] = assay: Antibacterial activity against Pseudomonas aeruginosa NCIM 2036 at 10 ug/ml measured after 8 hrs by spectrophotometric method; conditions: NCIM 2036, 8 h
Escherichia coli [5] = assay: Antibacterial activity against Escherichia coli NCIM 2688 at 3 ug/ml measured after 8 hrs by spectrophotometric method; conditions: NCIM 2688, 8 h
[6] = tested on: Mycobacterium tuberculosis; assay: Antitubercular activity against dormant stage Mycobacterium tuberculosis H37Ra measured after 12 days by XTT assay; conditions: 288 h
Escherichia coli [7] = assay: Antibacterial activity against Escherichia coli NCIM 2688 at 30 ug/ml measured after 8 hrs by spectrophotometric method; conditions: NCIM 2688, 8 h
[8] = tested on: Mycobacterium tuberculosis; assay: Antitubercular activity against dormant stage Mycobacterium tuberculosis H37Ra at 30 ug/ml measured after 12 days by XTT assay; conditions: 288 h
Bacillus subtilis [9] = assay: Antibacterial activity against Bacillus subtilis NCIM 2010 at 10 ug/ml measured after 12 hrs by spectrophotometric method; conditions: NCIM 2010, 12 h
Staphylococcus aureus [10] = assay: Antibacterial activity against Staphylococcus aureus NCIM 2079 at 30 ug/ml measured after 12 hrs by spectrophotometric method; conditions: NCIM 2079, 12 h
[11] = tested on: Mycobacterium tuberculosis; assay: Antitubercular activity against dormant stage Mycobacterium tuberculosis H37Ra at 3 ug/ml measured after 12 days by XTT assay; conditions: 288 h
Bacillus subtilis [12] = assay: Antibacterial activity against Bacillus subtilis NCIM 2010 at 3 ug/ml measured after 12 hrs by spectrophotometric method; conditions: NCIM 2010, 12 h
Staphylococcus aureus [13] = assay: Antibacterial activity against Staphylococcus aureus NCIM 2079 at 10 ug/ml measured after 12 hrs by spectrophotometric method; conditions: NCIM 2079, 12 h
Bacillus subtilis [14] = assay: Antibacterial activity against Bacillus subtilis NCIM 2010 measured after 12 hrs by spectrophotometric method; conditions: NCIM 2010, 12 h
[15] = tested on: Mycobacterium tuberculosis; assay: Antitubercular activity against dormant stage Mycobacterium tuberculosis H37Ra at 10 ug/ml measured after 12 days by XTT assay; conditions: 288 h
Escherichia coli [16] = assay: Antibacterial activity against Escherichia coli NCIM 2688 at 10 ug/ml measured after 8 hrs by spectrophotometric method; conditions: NCIM 2688, 8 h
Staphylococcus aureus [17] = assay: Antibacterial activity against Staphylococcus aureus NCIM 2079 measured after 12 hrs by spectrophotometric method; conditions: NCIM 2079, 12 h
Pseudomonas aeruginosa [18] = assay: Antibacterial activity against Pseudomonas aeruginosa NCIM 2036 measured after 8 hrs by spectrophotometric method; conditions: NCIM 2036, 8 h
Escherichia coli [19] = assay: Antibacterial activity against Escherichia coli NCIM 2688 measured after 8 hrs by spectrophotometric method; conditions: NCIM 2688, 8 h
Bacillus subtilis [20] = assay: Antibacterial activity against Bacillus subtilis NCIM 2010 at 30 ug/ml measured after 12 hrs by spectrophotometric method; conditions: NCIM 2010, 12 h

| SMILES | inhibition at 3 µg/mL (Staphylococcus aureus [1]) | inhibition at 3 µg/mL (Pseudomonas aeruginosa [2]) | inhibition at 30 µg/mL (Pseudomonas aeruginosa [3]) | inhibition at 10 µg/mL (Pseudomonas aeruginosa [4]) | inhibition at 3 µg/mL (Escherichia coli [5]) | IC50 [6] | MIC [6] | inhibition at 30 µg/mL (Escherichia coli [7]) | inhibition at 30 µg/mL [8] | inhibition at 10 µg/mL (Bacillus subtilis [9]) | inhibition at 30 µg/mL (Staphylococcus aureus [10]) | inhibition at 3 µg/mL [11] | inhibition at 3 µg/mL (Bacillus subtilis [12]) | inhibition at 10 µg/mL (Staphylococcus aureus [13]) | IC50 (Bacillus subtilis [14]) | MIC (Bacillus subtilis [14]) | inhibition at 10 µg/mL [15] | inhibition at 10 µg/mL (Escherichia coli [16]) | IC50 (Staphylococcus aureus [17]) | MIC (Staphylococcus aureus [17]) | further results |
| --- | --- | --- | --- | --- | --- | --- | --- | --- | --- | --- | --- | --- | --- | --- | --- | --- | --- | --- | --- | --- | --- |
| N#Cc1ccc(NC(=S)NC[C@H]2CN(c3ccc(N4CC5(COC5)C4)c(F)c3)C(=O)O2)cc1 | 75.6% | 22.1% | 50% | 46.6% | 78.2% | > 100 µg/mL | > 100 µg/mL | 95.7% | 34.7% | 97.6% | 94.3% | 34.5% | 81.3% | 91.6% | 0.86 µg/mL (≈ 1.84 µM) | 3.87 µg/mL (≈ 8.28 µM) | 58.1% | 93.2% | 1.03 µg/mL (≈ 2.2 µM) | 11.2 µg/mL (≈ 24 µM) | IC50 (Pseudomonas aeruginosa [18]): > 100 µg/mL; MIC (Pseudomonas aeruginosa [18]): > 100 µg/mL; IC50 (Escherichia coli [19]): 1 µg/mL (≈ 2.14 µM); MIC (Escherichia coli [19]): 9.54 µg/mL (≈ 20.4 µM); inhibition at 30 µg/mL (Bacillus subtilis [20]): 98% |
| CC(C)NC(=S)NC[C@H]1CN(c2ccc(N3CC4(COC4)C3)c(F)c2)C(=O)O1 | 58.8% | 72.6% | 91.4% | 83.8% | 46.7% | > 100 µg/mL | > 100 µg/mL | 91.3% | 48.8% | 95.1% | 93% | -11.7% | 82% | 75.2% | 0.64 µg/mL (≈ 1.57 µM) | 6.04 µg/mL (≈ 14.8 µM) | 7.27% | 58.9% | > 100 µg/mL | > 100 µg/mL | IC50 (Pseudomonas aeruginosa [18]): 1.27 µg/mL (≈ 3.11 µM); MIC (Pseudomonas aeruginosa [18]): 32.3 µg/mL (≈ 79 µM); IC50 (Escherichia coli [19]): > 100 µg/mL; MIC (Escherichia coli [19]): > 100 µg/mL; inhibition at 30 µg/mL (Bacillus subtilis [20]): 99.3% |
| CC1(C)[C@@]2(C)CC[C@]1(C(=O)NC[C@H]1CN(c3ccc(N4CC5(COC5)C4)c(F)c3)C(=O)O1)OC2=O | 50.6% | 50.6% | 56.4% | 55% | 20% | > 100 µg/mL | > 100 µg/mL | 39.5% | 15.6% | 53.8% | 70.2% | 9.81% | 40.5% | 51.1% | > 100 µg/mL | > 100 µg/mL | -38.5% | 28.8% | > 100 µg/mL | > 100 µg/mL | IC50 (Pseudomonas aeruginosa [18]): > 100 µg/mL; MIC (Pseudomonas aeruginosa [18]): > 100 µg/mL; IC50 (Escherichia coli [19]): > 100 µg/mL; MIC (Escherichia coli [19]): > 100 µg/mL; inhibition at 30 µg/mL (Bacillus subtilis [20]): 69.8% |
| O=C1O[C@@H](CNS(=O)(=O)c2cc([N+](=O)[O-])ccc2Cl)CN1c1ccc(N2CC3(COC3)C2)c(F)c1 | 42% | -6.17% | 68.6% | 38.6% | 2.37% | > 100 µg/mL | > 100 µg/mL | 49.6% | 59.6% | 62.1% | 89.5% | 24.4% | 47% | 55% | > 100 µg/mL | > 100 µg/mL | 29.2% | 15.8% | > 100 µg/mL | > 100 µg/mL | IC50 (Pseudomonas aeruginosa [18]): > 100 µg/mL; MIC (Pseudomonas aeruginosa [18]): > 100 µg/mL; IC50 (Escherichia coli [19]): > 100 µg/mL; MIC (Escherichia coli [19]): > 100 µg/mL; inhibition at 30 µg/mL (Bacillus subtilis [20]): 88.4% |
| O=C(NC[C@H]1CN(c2ccc(N3CC4(COC4)C3)c(F)c2)C(=O)O1)c1cccnc1 | 78.2% | 40.9% | 56.3% | 49.5% | 84.8% | > 100 µg/mL | > 100 µg/mL | 94.8% | 63.1% | 77.1% | 96.2% | 3.2% | 60.8% | 85.9% | > 100 µg/mL | > 100 µg/mL | 5.21% | 90.5% | 1.03 µg/mL (≈ 2.5 µM) | 18.3 µg/mL (≈ 44.3 µM) | IC50 (Pseudomonas aeruginosa [18]): > 100 µg/mL; MIC (Pseudomonas aeruginosa [18]): > 100 µg/mL; IC50 (Escherichia coli [19]): 0.67 µg/mL (≈ 1.62 µM); MIC (Escherichia coli [19]): 8.33 µg/mL (≈ 20.2 µM); inhibition at 30 µg/mL (Bacillus subtilis [20]): 99.2% |
| CC(C)(C)NC(=S)NC[C@H]1CN(c2ccc(N3CC4(COC4)C3)c(F)c2)C(=O)O1 | 82.1% | 0% | 62.7% | 37.5% | 75.7% | > 100 µg/mL | > 100 µg/mL | 100% | -6.69% | 79.3% | 98.9% | 9.56% | 66.3% | 90.4% | > 100 µg/mL | > 100 µg/mL | -3.66% | 84% | 1.45 µg/mL (≈ 3.43 µM) | 9.15 µg/mL (≈ 21.7 µM) | IC50 (Pseudomonas aeruginosa [18]): > 100 µg/mL; MIC (Pseudomonas aeruginosa [18]): > 100 µg/mL; IC50 (Escherichia coli [19]): 1.38 µg/mL (≈ 3.27 µM); MIC (Escherichia coli [19]): 22.8 µg/mL (≈ 53.9 µM); inhibition at 30 µg/mL (Bacillus subtilis [20]): 97.2% |
| O=C1O[C@@H](CNS(=O)(=O)c2cccc(C(F)(F)F)c2)CN1c1ccc(N2CC3(COC3)C2)c(F)c1 | -2.71% | 0.66% | 70.8% | 43% | 90.5% | > 100 µg/mL | > 100 µg/mL | 99.5% | 25.1% | 17.5% | 19.5% | 5.38% | 11.2% | 17.3% | > 100 µg/mL | > 100 µg/mL | -59% | 97.5% | > 100 µg/mL | > 100 µg/mL | IC50 (Pseudomonas aeruginosa [18]): > 100 µg/mL; MIC (Pseudomonas aeruginosa [18]): > 100 µg/mL; IC50 (Escherichia coli [19]): 0.57 µg/mL (≈ 1.11 µM); MIC (Escherichia coli [19]): 3.03 µg/mL (≈ 5.88 µM); inhibition at 30 µg/mL (Bacillus subtilis [20]): 25% |
| COc1ccc(NC(=S)NC[C@H]2CN(c3ccc(N4CC5(COC5)C4)c(F)c3)C(=O)O2)cc1 | 81.4% | 17.7% | 58.5% | 30.1% | 82.2% | > 100 µg/mL | > 100 µg/mL | 98% | 23.3% | 95.3% | 98.3% | 14.3% | 77.9% | 88.7% | 1.1 µg/mL (≈ 2.33 µM) | 8.78 µg/mL (≈ 18.6 µM) | -3.34% | 89.4% | 0.74 to 100 µg/mL (≈ 1.57 to 212 µM) | 16.1 to 100 µg/mL (≈ 34.1 to 212 µM) | IC50 (Pseudomonas aeruginosa [18]): > 100 µg/mL; MIC (Pseudomonas aeruginosa [18]): > 100 µg/mL; IC50 (Escherichia coli [19]): 1.1 µg/mL (≈ 2.33 µM); MIC (Escherichia coli [19]): 10.7 µg/mL (≈ 22.6 µM); inhibition at 30 µg/mL (Bacillus subtilis [20]): 100% |
| COCC(=O)NC[C@H]1CN(c2ccc(N3CC4(COC4)C3)c(F)c2)C(=O)O1 | 72.3% | 14.4% | 63.7% | 37.1% | 61.5% | > 100 µg/mL | > 100 µg/mL | 66.6% | 50.1% | 77.7% | 98.8% | -22.9% | 51.2% | 92.2% | > 100 µg/mL | > 100 µg/mL | -13.7% | 65.4% | > 100 µg/mL | > 100 µg/mL | IC50 (Pseudomonas aeruginosa [18]): > 100 µg/mL; MIC (Pseudomonas aeruginosa [18]): > 100 µg/mL; IC50 (Escherichia coli [19]): > 100 µg/mL; MIC (Escherichia coli [19]): > 100 µg/mL; inhibition at 30 µg/mL (Bacillus subtilis [20]): 95.2% |
| OC1(CNc2ccc(N3CCOCC3)c(F)c2)CCN(Cc2ccccc2)C1 (stereo not given) | 44.3% | 14.4% | 63.7% | 37.1% | 45% | > 100 µg/mL | > 100 µg/mL | 53.9% | 5.62% | 47.1% | 53.2% | 8% | 44.7% | 48.9% | > 100 µg/mL | > 100 µg/mL | 6.11% | 49.6% | > 100 µg/mL | > 100 µg/mL | IC50 (Pseudomonas aeruginosa [18]): > 100 µg/mL; MIC (Pseudomonas aeruginosa [18]): > 100 µg/mL; IC50 (Escherichia coli [19]): > 100 µg/mL; MIC (Escherichia coli [19]): > 100 µg/mL; inhibition at 30 µg/mL (Bacillus subtilis [20]): 52.2% |
